Test results from ChEMBL document CHEMBL4020781, “Discovery of potent and orally active 1,4-disubstituted indazoles as novel allosteric glucokinase activators” (Bioorg Med Chem Lett, 2017).
Calls of active or inactive are those of the source. No cut-off for these calls is given here.

Columns and labels:
Hexokinase-4 = target: T1, Hexokinase-4 (Homo sapiens, UniProt P35557); assay: Activation of full length human C-terminal FLAG-tagged glucokinase (12 to 465 residues) expressed in Escherichia coli DH10b using glucose as substrate after 60 mins in presence of ATP by kinase-glo luminescence assay
T1 sequence (P35557 whole entry): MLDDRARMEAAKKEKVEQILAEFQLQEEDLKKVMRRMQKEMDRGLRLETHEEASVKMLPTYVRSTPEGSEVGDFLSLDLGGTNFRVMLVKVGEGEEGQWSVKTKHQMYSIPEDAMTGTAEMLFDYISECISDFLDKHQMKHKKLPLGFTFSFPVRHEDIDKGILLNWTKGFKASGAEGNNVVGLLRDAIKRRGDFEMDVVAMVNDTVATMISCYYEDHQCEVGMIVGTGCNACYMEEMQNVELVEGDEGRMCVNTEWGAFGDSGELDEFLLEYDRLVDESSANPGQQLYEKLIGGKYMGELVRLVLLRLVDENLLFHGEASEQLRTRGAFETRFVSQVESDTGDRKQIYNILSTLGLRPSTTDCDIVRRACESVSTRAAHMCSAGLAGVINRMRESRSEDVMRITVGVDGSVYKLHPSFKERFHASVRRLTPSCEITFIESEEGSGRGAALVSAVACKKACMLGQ

[1] = target: T2, Hexokinase-4 (Homo sapiens) (UniProt P35557); assay: Activation of full length human C-terminal FLAG-tagged glucokinase (12 to 465 residues) expressed in Escherichia coli DH10b using glucose as substrate after 60 mins in presence of ATP by kinase-glo luminescence assay relative to control
T2 sequence (whole entry): T1 sequence (P35557 whole entry)

Mus musculus [2] = assay: Antidiabetic activity in ob/ob mouse assessed as reduction in glucose excursion at 30 mg/kg, po by oral glucose tolerance test; type: functional, organism-based
hERG (KCNH2) = hERG (KCNH2) (Homo sapiens, UniProt Q12809); assay: Inhibition of human ERG at 10 uM
Chain of hERG (KCNH2) (Q12809 whole entry): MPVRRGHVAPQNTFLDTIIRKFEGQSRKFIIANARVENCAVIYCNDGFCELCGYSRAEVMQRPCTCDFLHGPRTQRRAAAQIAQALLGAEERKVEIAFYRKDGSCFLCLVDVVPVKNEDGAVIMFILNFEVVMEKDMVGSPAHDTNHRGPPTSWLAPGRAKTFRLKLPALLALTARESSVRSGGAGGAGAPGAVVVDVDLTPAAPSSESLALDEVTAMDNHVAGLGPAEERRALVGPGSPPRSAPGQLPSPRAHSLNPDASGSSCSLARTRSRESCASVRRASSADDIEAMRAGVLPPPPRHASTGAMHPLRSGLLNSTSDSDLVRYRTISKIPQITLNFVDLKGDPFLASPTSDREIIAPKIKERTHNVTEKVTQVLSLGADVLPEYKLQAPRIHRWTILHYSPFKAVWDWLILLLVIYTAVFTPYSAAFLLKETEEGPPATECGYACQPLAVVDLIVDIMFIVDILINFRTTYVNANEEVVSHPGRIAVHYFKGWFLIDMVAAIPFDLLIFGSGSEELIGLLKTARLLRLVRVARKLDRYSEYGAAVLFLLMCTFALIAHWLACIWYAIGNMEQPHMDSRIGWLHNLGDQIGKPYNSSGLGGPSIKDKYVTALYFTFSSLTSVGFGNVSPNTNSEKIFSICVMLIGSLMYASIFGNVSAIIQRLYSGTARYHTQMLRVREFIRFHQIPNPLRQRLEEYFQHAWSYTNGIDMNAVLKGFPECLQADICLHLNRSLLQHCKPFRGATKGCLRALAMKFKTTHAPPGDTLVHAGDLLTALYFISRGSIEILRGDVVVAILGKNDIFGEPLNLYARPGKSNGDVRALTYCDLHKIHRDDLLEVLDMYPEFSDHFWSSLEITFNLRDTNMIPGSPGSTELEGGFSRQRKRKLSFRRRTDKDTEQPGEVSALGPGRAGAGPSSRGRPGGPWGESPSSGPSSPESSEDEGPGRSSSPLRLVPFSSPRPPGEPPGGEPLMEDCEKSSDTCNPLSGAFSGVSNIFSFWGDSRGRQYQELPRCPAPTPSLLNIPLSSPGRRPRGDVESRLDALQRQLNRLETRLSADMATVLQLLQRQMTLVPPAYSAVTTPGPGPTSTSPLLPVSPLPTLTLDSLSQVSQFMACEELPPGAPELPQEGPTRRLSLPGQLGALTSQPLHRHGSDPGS

[3] = Hepatic extraction ratio in rat liver microsomes; type: ADME, microsome; conditions: read-out: ERH
[4] = Hepatic extraction ratio in human liver microsomes; type: ADME, microsome; conditions: read-out: ERH
[5] = Plasma protein binding in human; type: ADME, cell-free; conditions: read-out: PPB (converted)
[6] = target: T2, Hexokinase-4 (Homo sapiens); assay: Potency index, ratio of (S)-N-(5-chlorothiazol-2-yl)-2-(4-(cyclopropylsulfonyl)-6-methyl-2-oxopyridin-1(2H)-yl)-3-(tetrahydro-2H-pyran-4-yl)propanamide EC50 to compound EC50 for full length human C-terminal FLAG-tagged glucokinase (12 to 465 residues)
[7] = Hepatic extraction ratio in mouse liver microsomes; type: ADME, microsome; conditions: read-out: ERH
Rattus norvegicus = assay: Volume of distribution in orally dosed rat; type: ADME, organism-based; conditions: in vivo, po
[8] = Clearance in orally dosed rat; type: ADME, organism-based; conditions: in vivo, po
Mus musculus [9] = assay: Antidiabetic activity in C57BL/6J mouse assessed as glucose lowering effect at 30 mg/kg, po; type: functional, organism-based
[10] = Half life in orally dosed rat; type: ADME, organism-based; conditions: in vivo, po
[11] = Oral bioavailability in rat; type: ADME, organism-based; conditions: in vivo

| Compound | EC50 (Hexokinase-4) | %max [1] | inhibition at 10 µM (hERG (KCNH2)) | further results |
| --- | --- | --- | --- | --- |
| O=C(Nc1ncc(Cl)s1)[C@H](CC1CCOCC1)n1cc(S(=O)(=O)C2CCCC2)cn1 | 1000 nM | 32% | – | – |
| NC(=O)c1cc(S(=O)(=O)C2CC2)c2cnn([C@@H](CC3CCOCC3)C(=O)Nc3ncc(F)s3)c2c1 | 100 nM | 97% | – | – |
| O=C(Nc1ncc(Cl)s1)C(CC1CCOCC1)n1ncc2ccc(S(=O)(=O)C3CC3)cc21 (racemic) | > 100000 nM | 0% | – | – |
| O=C(Nc1ncc(F)s1)[C@H](CC1CCOCC1)n1ncc2c(S(=O)(=O)C3CC3)cc(O)cc21 | 100 nM | 96% | – | – |
| Cc1cc(S(=O)(=O)C2CC2)cc(=O)n1[C@@H](CC1CCOCC1)C(=O)Nc1ncc(Cl)s1 | 1200 nM | 77% | – | Activity (Mus musculus [2]): Active |
| O=C(Nc1ccn(CCO)n1)C(CC1CCOCC1)n1ncc2c(S(=O)(=O)C3CC3)cccc21 (racemic) | 3100 nM | 73% | 12.5% | – |
| O=C(Nc1ncc(Cl)s1)[C@H](CC1CCOCC1)n1ncc2cc(S(=O)(=O)C3CC3)ccc21 | 500 nM | 26% | – | – |
| NC(=O)c1cnc(NC(=O)C(CC2CCOCC2)n2ncc3c(S(=O)(=O)C4CC4)cccc32)s1 (racemic) | 1600 nM | 49% | 26% | – |
| Cn1ccc(NC(=O)C(CC2CCOCC2)n2ncc3c(S(=O)(=O)C4CC4)cccc32)n1 (racemic) | 1200 nM | 79% | 23% | – |
| O=C(Nc1ncc(F)s1)[C@H](CC1CCCC1)n1cc(S(=O)(=O)C2CC2)cn1 | 630 nM | 73% | – | hepatic extraction ratio [3]: 0.85; hepatic extraction ratio [4]: 0.91 |
| O=C(Nc1ncc(F)s1)[C@H](CC1CCOCC1)n1ncc2c(S(=O)(=O)C3CC3)cccc21 | 40 nM | 83% | 84% | – |
| O=C(Nc1ncc(F)s1)[C@H](CC1CCOCC1)n1ncc2c(S(=O)(=O)C3CC3)ccnc21 | 120 nM | 74% | 71% | – |
| Cc1nnc(NC(=O)C(CC2CCOCC2)n2ncc3c(S(=O)(=O)C4CC4)cccc32)s1 (racemic) | 5000 nM | 74% | 23% | – |
| O=C(Nc1ncc(Cl)s1)[C@H](CC1CCOCC1)n1ncc2c(S(=O)(=O)C3CC3)cccc21 | 31 nM | 65% | 85 to 93% | fraction unbound [5]: 0.0004; hepatic extraction ratio [4]: 0.67; Ratio EC50 [6]: 40 |
| NC(=O)c1cccnc1NC(=O)C(CC1CCOCC1)n1ncc2c(S(=O)(=O)C3CC3)cccc21 (racemic) | 200 nM | 38% | 29% | – |
| O=C(Nc1ncc(Cl)s1)[C@H](CC1CCCC1)n1cc(S(=O)(=O)C2CC2)cn1 | 630 nM | 88% | – | hepatic extraction ratio [3]: 0.85; hepatic extraction ratio [4]: 0.91 |
| O=C(Nc1ncc(F)s1)C(CC1CCOCC1)n1cc(S(=O)(=O)c2cccc(Cl)c2)cn1 (racemic) | > 100000 nM | 0% | – | – |
| O=C(Nc1ncc(F)s1)[C@H](CC1CCOCC1)n1ncc2c(S(=O)(=O)C3CC3)cc(F)cc21 | 120 nM | 91% | 77% | – |
| O=C(Nc1cnccn1)[C@H](CC1CCOCC1)n1ncc2c(S(=O)(=O)C3CC3)cccc21 | 790 nM | 95% | 45% | – |
| CC(C)(C)S(=O)(=O)c1cnn(C(CC2CCOCC2)C(=O)Nc2ncc(F)s2)c1 (racemic) | > 100000 nM | 0% | – | – |
| N#Cc1cc(S(=O)(=O)C2CC2)c2cnn(C(CC3CCOCC3)C(=O)Nc3ncc(F)s3)c2c1 (racemic) | 100 nM | 74% | 83% | – |
| O=C(Nc1ncc(F)s1)[C@H](CC1CCOCC1)n1ncc2c(S(=O)(=O)C3CC3)cncc21 | 80 nM | 71% | 46% | hepatic extraction ratio [7]: 0.56; Vd (Rattus norvegicus): 1.9 L/kg; CL/F [8]: 29 mL/min/kg; hepatic extraction ratio [3]: 0.33; hepatic extraction ratio [4]: 0.59; Activity (Mus musculus [2]): Active; Activity (Mus musculus [9]): Active; half-life [10]: 4.3 h; bioavailability [11]: 51% |
| COc1cc(S(=O)(=O)C2CC2)c2cnn([C@@H](CC3CCOCC3)C(=O)Nc3ncc(F)s3)c2c1 | 100 nM | 100% | 78% | – |
| O=C(Nc1ncc(F)s1)[C@H](CC1CCOCC1)n1cc(S(=O)(=O)C2CC2)cn1 | 4000 nM | 37% | – | hepatic extraction ratio [3]: 0.31 to 0.39; hepatic extraction ratio [4]: 0.31 to 0.39 |
| O=C(Nc1ncc(Cl)s1)[C@H](CC1CCOCC1)n1cc(S(=O)(=O)C2CC2)cn1 | 2000 nM | 35% | – | hepatic extraction ratio [3]: 0.31 to 0.39; hepatic extraction ratio [4]: 0.31 to 0.39 |
| Cc1ccc(NC(=O)C(CC2CCOCC2)n2ncc3c(S(=O)(=O)C4CC4)cccc32)nn1 (racemic) | 7900 nM | 50% | 57% | – |
